Reference: ChEMBL document CHEMBL5291721, “A preclinical secondary pharmacology resource illuminates target-adverse drug reaction associations of marketed drugs” (Nat Commun, 2023)

Tests used:
[1] = molecular target: T1, Equilibrative nucleoside transporter 1 (Homo sapiens, UniProt Q99808)
T1 sequence (Q99808 whole entry): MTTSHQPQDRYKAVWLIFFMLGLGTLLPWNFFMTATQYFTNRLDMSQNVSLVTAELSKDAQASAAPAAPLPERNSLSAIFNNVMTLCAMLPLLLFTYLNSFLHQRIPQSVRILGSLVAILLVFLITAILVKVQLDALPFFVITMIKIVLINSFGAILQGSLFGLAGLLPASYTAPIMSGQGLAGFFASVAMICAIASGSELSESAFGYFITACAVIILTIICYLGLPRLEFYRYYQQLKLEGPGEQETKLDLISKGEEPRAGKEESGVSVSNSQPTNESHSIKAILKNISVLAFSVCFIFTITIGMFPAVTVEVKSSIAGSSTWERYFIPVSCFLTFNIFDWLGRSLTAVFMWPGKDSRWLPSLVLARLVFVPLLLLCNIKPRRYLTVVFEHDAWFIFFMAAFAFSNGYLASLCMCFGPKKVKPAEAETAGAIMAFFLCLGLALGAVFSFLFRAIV

[2] = molecular target: Beta-2 adrenergic receptor (Homo sapiens, UniProt P07550); type: functional, cell-based
Sequence of Beta-2 adrenergic receptor (P07550 whole entry): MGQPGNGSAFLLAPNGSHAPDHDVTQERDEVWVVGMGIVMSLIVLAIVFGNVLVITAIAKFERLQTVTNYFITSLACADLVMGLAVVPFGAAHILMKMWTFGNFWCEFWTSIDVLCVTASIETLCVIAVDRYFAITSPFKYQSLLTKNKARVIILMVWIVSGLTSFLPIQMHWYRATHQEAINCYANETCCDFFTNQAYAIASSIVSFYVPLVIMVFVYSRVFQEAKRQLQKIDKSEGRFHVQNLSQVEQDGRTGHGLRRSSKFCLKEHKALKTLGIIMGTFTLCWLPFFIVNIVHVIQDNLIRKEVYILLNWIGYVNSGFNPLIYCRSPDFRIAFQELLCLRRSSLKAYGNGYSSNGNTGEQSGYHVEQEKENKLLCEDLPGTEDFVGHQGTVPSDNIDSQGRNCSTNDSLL

[3] = molecular target: Histamine H3 receptor (Homo sapiens, UniProt Q9Y5N1)
Sequence of Histamine H3 receptor (Q9Y5N1 whole entry): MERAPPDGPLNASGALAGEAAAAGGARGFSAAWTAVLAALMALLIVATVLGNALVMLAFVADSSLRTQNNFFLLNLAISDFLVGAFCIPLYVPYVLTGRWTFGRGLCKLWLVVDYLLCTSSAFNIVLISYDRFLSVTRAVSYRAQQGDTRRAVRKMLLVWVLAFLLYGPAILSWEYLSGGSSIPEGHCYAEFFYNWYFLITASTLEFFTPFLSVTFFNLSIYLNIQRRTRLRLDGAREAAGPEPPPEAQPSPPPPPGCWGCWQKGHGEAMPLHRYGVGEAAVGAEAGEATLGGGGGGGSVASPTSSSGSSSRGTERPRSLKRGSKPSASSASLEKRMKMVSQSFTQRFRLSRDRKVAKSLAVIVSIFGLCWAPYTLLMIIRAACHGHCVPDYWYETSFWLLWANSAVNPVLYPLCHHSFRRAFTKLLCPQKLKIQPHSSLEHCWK

[4] = molecular target: T2, Muscarinic acetylcholine receptor M2 (Homo sapiens, UniProt P08172); type: functional, cell-based
T2 sequence (P08172 whole entry): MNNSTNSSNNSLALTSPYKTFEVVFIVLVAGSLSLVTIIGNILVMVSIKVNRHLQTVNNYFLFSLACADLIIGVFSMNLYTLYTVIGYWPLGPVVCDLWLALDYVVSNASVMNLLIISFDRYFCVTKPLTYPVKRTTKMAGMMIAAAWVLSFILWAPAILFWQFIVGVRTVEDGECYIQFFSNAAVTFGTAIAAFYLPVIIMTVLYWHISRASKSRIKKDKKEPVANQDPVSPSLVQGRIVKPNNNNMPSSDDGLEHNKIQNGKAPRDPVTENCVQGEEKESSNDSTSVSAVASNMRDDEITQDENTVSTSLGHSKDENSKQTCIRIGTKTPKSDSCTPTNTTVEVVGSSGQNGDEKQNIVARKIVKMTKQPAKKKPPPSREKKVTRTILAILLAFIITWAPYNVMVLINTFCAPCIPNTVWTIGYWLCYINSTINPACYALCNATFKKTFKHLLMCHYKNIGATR

[5] = molecular target: T3, Endothelin-1 receptor (Homo sapiens, UniProt P25101)
T3 sequence (P25101 whole entry): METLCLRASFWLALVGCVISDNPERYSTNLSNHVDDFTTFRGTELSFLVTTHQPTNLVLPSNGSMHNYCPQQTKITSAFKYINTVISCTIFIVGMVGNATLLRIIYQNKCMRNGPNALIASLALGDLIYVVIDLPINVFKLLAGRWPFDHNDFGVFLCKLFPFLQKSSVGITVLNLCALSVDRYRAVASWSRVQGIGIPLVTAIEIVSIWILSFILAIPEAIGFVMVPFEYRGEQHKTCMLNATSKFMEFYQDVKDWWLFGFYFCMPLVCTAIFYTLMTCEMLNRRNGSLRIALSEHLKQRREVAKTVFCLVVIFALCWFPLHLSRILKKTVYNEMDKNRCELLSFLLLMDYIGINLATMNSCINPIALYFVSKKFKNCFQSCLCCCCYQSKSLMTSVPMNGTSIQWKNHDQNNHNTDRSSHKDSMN

[6] = molecular target: T4, Gastrin/cholecystokinin type B receptor (Homo sapiens, UniProt P32239)
T4 sequence (P32239 whole entry): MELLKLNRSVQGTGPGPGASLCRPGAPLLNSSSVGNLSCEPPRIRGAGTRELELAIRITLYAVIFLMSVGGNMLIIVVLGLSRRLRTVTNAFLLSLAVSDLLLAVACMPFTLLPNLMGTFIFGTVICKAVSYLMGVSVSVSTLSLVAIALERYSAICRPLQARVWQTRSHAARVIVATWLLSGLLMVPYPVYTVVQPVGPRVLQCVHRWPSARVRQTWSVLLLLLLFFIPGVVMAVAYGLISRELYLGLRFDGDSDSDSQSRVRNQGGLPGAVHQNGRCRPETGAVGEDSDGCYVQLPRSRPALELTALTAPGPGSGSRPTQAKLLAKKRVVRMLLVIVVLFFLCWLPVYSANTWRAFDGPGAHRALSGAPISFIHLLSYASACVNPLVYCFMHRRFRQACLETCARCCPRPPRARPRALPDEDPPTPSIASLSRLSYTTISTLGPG

[7] = molecular target: T5, Muscarinic acetylcholine receptor M1 (Homo sapiens, UniProt P11229); type: functional
T5 sequence (P11229 whole entry): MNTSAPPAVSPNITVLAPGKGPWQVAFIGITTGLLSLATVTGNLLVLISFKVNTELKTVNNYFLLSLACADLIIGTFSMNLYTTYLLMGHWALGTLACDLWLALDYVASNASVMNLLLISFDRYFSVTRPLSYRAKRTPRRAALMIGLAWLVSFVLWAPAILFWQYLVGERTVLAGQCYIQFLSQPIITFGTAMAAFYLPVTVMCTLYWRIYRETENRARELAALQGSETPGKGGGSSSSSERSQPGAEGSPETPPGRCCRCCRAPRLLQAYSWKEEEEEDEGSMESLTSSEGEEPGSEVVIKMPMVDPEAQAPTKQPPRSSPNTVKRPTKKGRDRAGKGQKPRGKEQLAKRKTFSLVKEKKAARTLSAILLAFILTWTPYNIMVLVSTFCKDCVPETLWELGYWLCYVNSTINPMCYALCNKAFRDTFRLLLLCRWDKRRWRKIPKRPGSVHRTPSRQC

[8] = molecular target: Muscarinic acetylcholine receptor M3 (Homo sapiens, UniProt P20309)
Sequence of Muscarinic acetylcholine receptor M3 (P20309 whole entry): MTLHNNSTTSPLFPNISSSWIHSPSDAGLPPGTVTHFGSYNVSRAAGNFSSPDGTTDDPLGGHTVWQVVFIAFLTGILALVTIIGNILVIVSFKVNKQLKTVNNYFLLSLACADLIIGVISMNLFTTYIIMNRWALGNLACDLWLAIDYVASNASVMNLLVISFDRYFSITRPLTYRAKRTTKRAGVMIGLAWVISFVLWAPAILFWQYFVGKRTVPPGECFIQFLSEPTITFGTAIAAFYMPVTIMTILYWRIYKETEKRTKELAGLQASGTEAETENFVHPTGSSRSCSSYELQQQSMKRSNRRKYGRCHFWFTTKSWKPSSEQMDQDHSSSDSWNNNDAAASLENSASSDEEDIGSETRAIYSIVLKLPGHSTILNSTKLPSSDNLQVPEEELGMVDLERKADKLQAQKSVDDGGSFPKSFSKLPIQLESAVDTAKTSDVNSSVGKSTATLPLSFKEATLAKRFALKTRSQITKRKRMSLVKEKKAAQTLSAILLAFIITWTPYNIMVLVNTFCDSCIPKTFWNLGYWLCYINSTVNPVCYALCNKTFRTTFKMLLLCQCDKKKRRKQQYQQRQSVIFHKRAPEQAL

[9] = molecular target: 5-hydroxytryptamine receptor 2A (Homo sapiens, UniProt P28223); type: functional, cell-based
Sequence of 5-hydroxytryptamine receptor 2A (P28223 whole entry): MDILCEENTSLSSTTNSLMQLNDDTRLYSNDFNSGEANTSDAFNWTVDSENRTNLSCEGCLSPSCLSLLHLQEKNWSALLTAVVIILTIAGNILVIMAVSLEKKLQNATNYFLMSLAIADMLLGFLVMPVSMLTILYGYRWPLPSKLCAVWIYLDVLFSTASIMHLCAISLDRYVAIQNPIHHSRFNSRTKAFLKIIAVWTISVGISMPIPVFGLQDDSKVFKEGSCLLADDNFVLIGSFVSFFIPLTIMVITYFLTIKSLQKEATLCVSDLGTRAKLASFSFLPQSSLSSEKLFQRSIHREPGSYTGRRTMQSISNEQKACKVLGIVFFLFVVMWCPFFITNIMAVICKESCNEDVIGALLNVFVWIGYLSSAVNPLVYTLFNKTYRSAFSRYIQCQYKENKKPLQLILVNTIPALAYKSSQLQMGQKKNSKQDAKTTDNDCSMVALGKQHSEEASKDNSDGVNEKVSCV
Note: assay procedure not described here.

SMILES | AC50 [1] | AC50 [2] | AC50 [3] | AC50 [4] | AC50 [5] | AC50 [6] | AC50 [7] | AC50 [8] | AC50 [9]
C[N+](C)(C)CCOP(=O)([O-])OC[C@H](O)CO | > 30 µM | > 30 µM | > 30 µM | > 30 µM | > 30 µM | > 30 µM |  |  | 
CN(C)Cc1nnc2n1-c1ccc(Cl)cc1C(c1ccccc1)=NC2 [ADINAZOLAM] | > 10 µM |  | > 10 µM | > 10 µM |  |  | > 10 µM |  | 
CCC1(c2ccc(N)cc2)CCC(=O)NC1=O (stereo not drawn) [AMINOGLUTETHIMIDE] | > 30 µM | > 30 µM | > 30 µM | > 30 µM | > 30 µM | > 30 µM |  |  | 
CCOC(=O)c1ccc(N)cc1 [BENZOCAINE] | > 10 µM |  | > 10 µM | > 10 µM |  |  |  |  | 
CC(C)(Oc1ccc(CCNC(=O)c2ccc(Cl)cc2)cc1)C(=O)O [BEZAFIBRATE] | > 10 µM |  | > 10 µM | > 10 µM |  |  |  |  | 
O=C(O)COCCN1CCN(C(c2ccccc2)c2ccc(Cl)cc2)CC1 (stereo not drawn) [CETIRIZINE] | > 30 µM | > 30 µM | > 10 µM |  | > 30 µM | > 30 µM |  | > 10 µM | 
C/C=C(/C(=C/C)c1ccc(O)cc1)c1ccc(O)cc1 [DIENESTROL] | > 30 µM |  |  | > 10 µM |  |  |  | > 30 µM | > 10 µM
CN[C@]1(c2ccccc2Cl)CCCCC1=O [ESKETAMINE] | > 30 µM |  | > 30 µM | > 30 µM | > 30 µM | > 30 µM |  |  | 
COc1ccc([C@@H]2CC(=O)c3c(O)cc(O)cc3O2)cc1O [HESPERETIN] | > 10 µM |  |  | > 10 µM |  |  | > 10 µM | > 30 µM | > 10 µM
CN(C)CCCN1c2ccccc2CCc2ccccc21 [IMIPRAMINE] | > 30 µM | > 30 µM | > 10 µM | 4.3 µM | > 30 µM | > 30 µM |  |  | 
CCOC(=O)C1=C(C)NC(C)=C(C(=O)OCC)C1c1ccccc1/C=C/C(=O)OC(C)(C)C [LACIDIPINE] | > 30 µM |  | > 30 µM | > 30 µM | > 30 µM | > 30 µM |  |  | 
CCC[C@@H]1C[C@@H](C(=O)N[C@@H]([C@H]2O[C@H](SC)[C@H](O)[C@@H](O)[C@H]2O)[C@@H](C)O)N(C)C1 [LINCOMYCIN] | > 10 µM | > 30 µM |  | > 10 µM |  |  |  |  | 
CN(Cc1cnc2nc(N)nc(N)c2n1)c1ccc(C(=O)N[C@@H](CCC(=O)O)C(=O)O)cc1 [METHOTREXATE] | > 30 µM | > 30 µM | > 10 µM | > 10 µM | > 30 µM | > 30 µM |  |  | 
Cc1ccccc1N1C(=O)c2cc(S(N)(=O)=O)c(Cl)cc2NC1C (stereo not drawn) [METOLAZONE] | > 10 µM |  |  | > 10 µM |  |  |  |  | 
O=C(O)c1cccnc1Nc1cccc(C(F)(F)F)c1 [NIFLUMIC ACID] | > 10 µM |  |  | > 10 µM |  |  |  |  | 
O=C1c2ccccc2C(=O)C1c1ccccc1 [PHENINDIONE] | > 10 µM |  | > 10 µM | > 10 µM |  |  |  |  | 
CC(C)c1cccc(C(C)C)c1O [PROPOFOL] | > 30 µM | > 30 µM | > 30 µM | > 30 µM | > 30 µM |  |  |  | 
CN[C@@H](C)[C@@H](O)c1ccccc1 [PSEUDOEPHEDRINE] | > 30 µM |  | > 10 µM | > 10 µM | > 30 µM | > 30 µM | > 10 µM | > 10 µM | 
CCCN1CC(NS(=O)(=O)N(CC)CC)CC2Cc3c(O)cccc3CC21 (stereo not drawn) [QUINAGOLIDE] |  | > 30 µM | > 30 µM | > 30 µM | > 30 µM | > 30 µM | > 30 µM | > 30 µM | 
C[C@]12CCC(=O)C[C@@H]1CC[C@@H]1[C@@H]2CC[C@]2(C)[C@@H](O)CC[C@@H]12 [STANOLONE] | > 30 µM |  | > 30 µM | > 30 µM |  | > 30 µM |  |  | 
CCCSc1nc(N[C@@H]2C[C@H]2c2ccc(F)c(F)c2)c2nnn([C@@H]3C[C@H](OCCO)[C@@H](O)[C@H]3O)c2n1 [TICAGRELOR] | 0.365 µM |  |  |  |  |  |  |  | 
